Measurements taken from ChEMBL document CHEMBL1146193, “Increased genome instability in Escherichia coli lon mutants: relation to emergence of multiple-antibiotic-resistant (Mar) mutants caused by insertion sequence elements and large tandem genomic amplifications” (2007).
Values after ≈ are worked out from the molar mass of the structure shown.

Assays:
Assay type in all cases: functional
Escherichia coli [1] = experiment: Antimicrobial activity against Escherichia coli M043 mutant with AG100 lon4::IS186 marR::IS2 genotype
Escherichia coli [2] = experiment: Antimicrobial activity against Escherichia coli M104 mutant with AG100 dupIS3 genotype
Escherichia coli [3] = experiment: Antimicrobial activity against Escherichia coli M044 mutant with AG100 lon4::IS186 marR::IS genotype
Escherichia coli [4] = experiment: Antimicrobial activity against Escherichia coli M074 mutant with AG100 lon2::IS186 acrR::IS genotype
Escherichia coli [5] = experiment: Antimicrobial activity against Escherichia coli M064 mutant with AG100 lon1::IS186 acrR::IS genotype
Escherichia coli [6] = experiment: Antimicrobial activity against Escherichia coli M084 mutant AG100 lon4::IS186 genotype
Escherichia coli [7] = experiment: Antimicrobial activity against Escherichia coli AG100 mutant with argE3 thi-3 rpsL xyl mtl supE44 genotype
Escherichia coli [8] = experiment: Antimicrobial activity against Escherichia coli M114 mutant with AG100 lon4::IS186 marR::IS2 genotype
Escherichia coli [9] = experiment: Antimicrobial activity against Escherichia coli M093 mutant with AG100 lon3::IS186 acrR::IS1 genotype
Escherichia coli [10] = experiment: Antimicrobial activity against Escherichia coli M073 mutant with AG100 lon2::IS186 acrR::IS5 genotype
Escherichia coli [11] = experiment: Antimicrobial activity against Escherichia coli M124 mutant with AG100 lon4::IS186 acrR::IS genotype
Escherichia coli [12] = experiment: Antimicrobial activity against Escherichia coli M013 mutant with AG100 delta-(lon-hupB-ppiD) dupIS5 genotype
Escherichia coli [13] = experiment: Antimicrobial activity against Escherichia coli M083 mutant with AG100 lon4::IS186 acrR::IS1 genotype
Escherichia coli [14] = experiment: Antimicrobial activity against Escherichia coli M103 mutant with AG100 lon3::IS186 acrR-acrAB genotype
Escherichia coli [15] = experiment: Antimicrobial activity against Escherichia coli AG112 mutant with marR genotype after 125 generations in absence of tetracycline
Escherichia coli [16] = experiment: Antimicrobial activity against Escherichia coli AG112 mutant with AG100 marR genotype
Escherichia coli [17] = experiment: Antimicrobial activity against Escherichia coli AG112 mutant with marR genotype after 250 generations in 5 ug/ml presence of tetracycline

SMILES	MIC (Escherichia coli [1])	MIC (Escherichia coli [2])	MIC (Escherichia coli [3])	MIC (Escherichia coli [4])	MIC (Escherichia coli [5])	MIC (Escherichia coli [6])	MIC (Escherichia coli [7])	MIC (Escherichia coli [8])	MIC (Escherichia coli [9])	MIC (Escherichia coli [10])	MIC (Escherichia coli [11])	MIC (Escherichia coli [12])	MIC (Escherichia coli [13])	MIC (Escherichia coli [14])	MIC (Escherichia coli [15])	MIC (Escherichia coli [16])	MIC (Escherichia coli [17])
CO[C@H]1/C=C/O[C@@]2(C)Oc3c(C)c(O)c4c(O)c(c(/C=N/N5CCN(C)CC5)c(O)c4c3C2=O)NC(=O)/C(C)=C\C=C\[C@H](C)[C@H](O)[C@@H](C)[C@@H](O)[C@@H](C)[C@H](OC(C)=O)[C@@H]1C [RIFAMPIN]	24 µg/mL (≈ 29.2 µM)	16 µg/mL (≈ 19.4 µM)	24 µg/mL (≈ 29.2 µM)	24 µg/mL (≈ 29.2 µM)	24 µg/mL (≈ 29.2 µM)	16 µg/mL (≈ 19.4 µM)	16 µg/mL (≈ 19.4 µM)	24 µg/mL (≈ 29.2 µM)	24 µg/mL (≈ 29.2 µM)	24 µg/mL (≈ 29.2 µM)	16 µg/mL (≈ 19.4 µM)	16 µg/mL (≈ 19.4 µM)	16 µg/mL (≈ 19.4 µM)	24 µg/mL (≈ 29.2 µM)			
CC1(C)S[C@@H]2[C@H](NC(=O)[C@H](N)c3ccccc3)C(=O)N2[C@H]1C(=O)O [AMPICILLIN]	6 µg/mL (≈ 17.2 µM)	3 µg/mL (≈ 8.59 µM)	6 µg/mL (≈ 17.2 µM)	6 µg/mL (≈ 17.2 µM)	6 µg/mL (≈ 17.2 µM)	3 µg/mL (≈ 8.59 µM)		8 µg/mL (≈ 22.9 µM)	6 µg/mL (≈ 17.2 µM)	6 µg/mL (≈ 17.2 µM)	3 µg/mL (≈ 8.59 µM)	3 µg/mL (≈ 8.59 µM)	4 µg/mL (≈ 11.4 µM)	4 µg/mL (≈ 11.4 µM)	12 µg/mL (≈ 34.3 µM)	6 µg/mL (≈ 17.2 µM)	32 µg/mL
O=C(N[C@H](CO)[C@H](O)c1ccc([N+](=O)[O-])cc1)C(Cl)Cl [CHLORAMPHENICOL]	64 µg/mL (≈ 198 µM)	32 µg/mL (≈ 99 µM)	32 µg/mL (≈ 99 µM)	48 µg/mL (≈ 149 µM)	32 µg/mL (≈ 99 µM)		4 µg/mL (≈ 12.4 µM)	64 µg/mL (≈ 198 µM)	32 µg/mL (≈ 99 µM)	32 µg/mL (≈ 99 µM)	24 µg/mL (≈ 74.3 µM)		32 µg/mL (≈ 99 µM)	24 µg/mL (≈ 74.3 µM)	24 µg/mL (≈ 74.3 µM)	24 µg/mL (≈ 74.3 µM)	256 µg/mL
CCn1cc(C(=O)O)c(=O)c2cc(F)c(N3CCNCC3)cc21 [NORFLOXACIN]	0.38 µg/mL (≈ 1.19 µM)	0.25 µg/mL (≈ 0.783 µM)	0.25 µg/mL (≈ 0.783 µM)	0.19 µg/mL (≈ 0.595 µM)	0.19 µg/mL (≈ 0.595 µM)	0.13 µg/mL (≈ 0.407 µM)	0.02 µg/mL (≈ 0.0626 µM)	0.38 µg/mL (≈ 1.19 µM)	0.25 µg/mL (≈ 0.783 µM)	0.19 µg/mL (≈ 0.595 µM)	0.25 µg/mL (≈ 0.783 µM)	0.13 µg/mL (≈ 0.407 µM)	0.25 µg/mL (≈ 0.783 µM)	0.25 µg/mL (≈ 0.783 µM)	0.75 µg/mL (≈ 2.35 µM)	0.38 µg/mL (≈ 1.19 µM)	2 µg/mL
CN(C)[C@@H]1C(O)=C(C(N)=O)C(=O)[C@@]2(O)C(O)=C3C(=O)c4c(O)cccc4[C@@](C)(O)[C@H]3C[C@@H]12 [TETRACYCLINE]	16 µg/mL (≈ 36 µM)	6 µg/mL (≈ 13.5 µM)	4 µg/mL (≈ 9 µM)	4 µg/mL (≈ 9 µM)	8 µg/mL (≈ 18 µM)	4 µg/mL (≈ 9 µM)	2 µg/mL (≈ 4.5 µM)	12 µg/mL (≈ 27 µM)	4 µg/mL (≈ 9 µM)	12 µg/mL (≈ 27 µM)	6 µg/mL (≈ 13.5 µM)	6 µg/mL (≈ 13.5 µM)	4 µg/mL (≈ 9 µM)	6 µg/mL (≈ 13.5 µM)	24 µg/mL (≈ 54 µM)	8 µg/mL (≈ 18 µM)	128 µg/mL
CCn1cc(C(=O)O)c(=O)c2ccc(C)nc21 [NALIDIXIC ACID]	8 µg/mL (≈ 34.4 µM)	8 µg/mL (≈ 34.4 µM)	12 µg/mL (≈ 51.7 µM)	8 µg/mL (≈ 34.4 µM)	12 µg/mL (≈ 51.7 µM)	6 µg/mL (≈ 25.8 µM)	6 µg/mL (≈ 25.8 µM)	8 µg/mL (≈ 34.4 µM)	8 µg/mL (≈ 34.4 µM)	8 µg/mL (≈ 34.4 µM)	8 µg/mL (≈ 34.4 µM)		8 µg/mL (≈ 34.4 µM)	6 µg/mL (≈ 25.8 µM)	24 µg/mL (≈ 103 µM)	12 µg/mL (≈ 51.7 µM)	192 µg/mL
